Source: patent publication US10889628B2, “Optogenetic inhibition of overactive neuronal activity” (Emory University, priority 2013, dated 2021)

Key:
[1] = system: neuron; assay: Inhibition of evoked spikes in a neuron expressing eNpHR3.0-Nanolantern; format: cell-based; conditions: CTZ added
[2] = system: cortical neuron cultures; assay: Inhibition of evoked activity (action potential trains evoked by current injection) in cortical neuron cultures; format: cell-based; conditions: FIG. 5
Procedure: Trains of action potentials were evoked by 30 pA current injections.
Simultaneous patch clamp studies are conducted to determine cellular responses in (1) cells expressing both opsin and luciferase (i.e. both components in cis) and (2) cells expressing […] (i.e. both components in trans). As an alternative to co-infection, one can also deliver luciferase and inhibitory opsin together as a fusion protein. Various molecular strategies can also be employed (such as adding dimerizing or transmembrane domains) to facilitate co-localization of the luciferase and inhibitory opsin to the cell membrane.

Compound: eNpHR3.0-Nanolantern: Fusion cassette of enhanced halorhodopsin eNpHR3.0 and Nanolantern, amino acid sequence SEQ ID NO: 11
- luminescence signal during inhibition of evoked activity ([1]; FIG. 8 (top)): increase in luminescence signal
- evoked action potentials after CTZ ([1]; sub-threshold depolarizing current injection, FIG. 8): completely attenuate evoked action potentials

Compound: Oc1ccc(Cc2nc3c(Cc4ccccc4)nc(-c4ccc(O)cc4)cn3c2O)cc1 [CTZ, Coelenterazine, reference compound]
- effect on firing rate in control (uninfected) neurons [2]: did not have any significant effect
